Experimental data taken from US10710994B2, “Oxadiazole transient receptor potential channel inhibitors” (Genentech, Inc., priority 2018, dated 2020).
Like-named read-outs stand apart in the source and are kept apart here.

Molecular target: human TRPA1 channel (Homo sapiens (Human), UniProt O75762)
Test: hTRPA1 CHO Ca2+ FLIPR Tetra assay: block of cinnamaldehyde induced calcium influx
Assay type: cell-based
Conditions: CHO cells expressing TRPA1, Hill coefficient fixed to 1.5
Experimental: CHO cells expressing TRPA1 were plated into 384-well plates, incubated overnight at 37° C., and loaded with BD calcium indicator dye for 1 hr at 37° C. followed by 15 minutes at room temperature. The assay buffer was Hank's Balanced Salt Solution (HBSS) containing 20 mM HEPES (pH readjusted to 7.4) along with 0.02% BSA.
Following dye load and plate cool down, compounds were added to the cells using FLIPR Tetra. Plates were then incubated with compounds for 10 minutes or 90 minutes at room temperature prior to adding agonist. Following this incubation, about an EC80 concentration of cinnamaldehyde […] was added to active the channels and block of cinnamaldehyde induced calcium influx was measured.
Fixing the Hill coefficient will generally reduce variability of the IC50 determination. The IC50 results were individually examined to make sure the MIN and MAX points were set correctly prior to validation of the results.

[1] = read-out: hTRPA1 IC50 10 min, 10 minutes incubation with compound before cinnamaldehyde (about EC80)
[2] = read-out: hTRPA1 IC50 90 min, 90 minutes incubation with compound before cinnamaldehyde (about EC80)
[3] = hTRPA1 IC50 10 min, 10 minutes incubation with compound before cinnamaldehyde (about EC80)
[4] = hTRPA1 IC50 90 min, 90 minutes incubation with compound before cinnamaldehyde (about EC80)

Sequence of human TRPA1 channel (O75762 whole entry): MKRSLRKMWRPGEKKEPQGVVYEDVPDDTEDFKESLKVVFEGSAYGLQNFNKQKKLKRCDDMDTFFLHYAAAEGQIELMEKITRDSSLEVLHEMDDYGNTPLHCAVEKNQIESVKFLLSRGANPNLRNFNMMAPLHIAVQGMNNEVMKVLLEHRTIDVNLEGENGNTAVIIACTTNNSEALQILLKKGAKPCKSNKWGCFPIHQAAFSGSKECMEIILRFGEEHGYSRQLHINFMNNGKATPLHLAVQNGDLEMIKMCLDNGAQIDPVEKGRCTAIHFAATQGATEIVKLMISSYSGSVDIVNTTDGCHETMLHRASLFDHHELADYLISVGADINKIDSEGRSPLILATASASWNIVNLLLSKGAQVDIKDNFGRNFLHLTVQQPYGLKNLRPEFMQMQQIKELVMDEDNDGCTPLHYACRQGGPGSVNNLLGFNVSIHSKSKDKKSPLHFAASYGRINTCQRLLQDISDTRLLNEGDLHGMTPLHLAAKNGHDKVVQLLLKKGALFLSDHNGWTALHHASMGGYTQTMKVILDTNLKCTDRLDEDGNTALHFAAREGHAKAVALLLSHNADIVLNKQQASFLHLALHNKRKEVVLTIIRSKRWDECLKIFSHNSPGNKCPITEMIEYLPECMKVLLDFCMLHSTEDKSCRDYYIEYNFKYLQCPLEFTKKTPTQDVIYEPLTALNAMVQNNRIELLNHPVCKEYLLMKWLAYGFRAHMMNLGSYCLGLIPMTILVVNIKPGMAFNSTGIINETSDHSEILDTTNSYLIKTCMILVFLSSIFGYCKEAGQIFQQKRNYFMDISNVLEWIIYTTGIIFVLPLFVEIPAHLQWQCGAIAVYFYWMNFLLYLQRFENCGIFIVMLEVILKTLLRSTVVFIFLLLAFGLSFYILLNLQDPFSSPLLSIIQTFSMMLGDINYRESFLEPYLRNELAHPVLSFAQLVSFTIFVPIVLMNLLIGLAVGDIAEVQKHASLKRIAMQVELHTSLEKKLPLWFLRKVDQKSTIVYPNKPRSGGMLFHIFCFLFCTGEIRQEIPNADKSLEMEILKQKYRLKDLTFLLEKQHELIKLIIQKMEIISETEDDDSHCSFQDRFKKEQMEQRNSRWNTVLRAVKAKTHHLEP

Row | Structure (SMILES) | IC50 [1] [nM] | IC50 [2] [nM] | IC50 [3] [nM] | IC50 [4] [nM]
1 | Cn1cnc2ncn(Cc3nc([C@@H]4CO[C@@H](c5ccc(S(F)(F)(F)(F)F)cc5)C4)no3)c(=O)c21 [Example 86, 7-methyl-1-((3-((3R,5R)-5-(4-(pentafluoro-l6-sulfanyl)phenyl)tetrahydro-furan-3-yl)-1,2,4-oxadiazol-5-yl)methyl)-1,7-dihydro-6H-purin-6-one] | 1560 | 930 |  | 
2 | Cc1ccnc2ncn(Cc3nc([C@@H]4CO[C@@H](c5ccc(Cl)cc5)C4)no3)c(=O)c12 [Example 58, 3-((3-((3R,5R)-5-(4-chlorophenyl)tetrahydro-furan-3-yl)-1,2,4-oxadiazol-5-yl)methyl)-5-methylpyrido[2,3-d] pyrimidin-4(3H)-one] | 69 | 52 |  | 
3 | Cc1cccc2nn(Cc3nc([C@@H]4CO[C@@H](c5ccc(Cl)cc5)C4)no3)c(=O)n12 (racemic) [Example 100, 5-methyl-2-[[3-[rac-(3R,5R)-5-(4-chlorophenyl)tetrahydro-furan-3-yl]-1,2,4-oxadiazol-5-yl]methyl]-[1,2,4]triazolo[4,3-a] pyridin-3-one] |  |  | 153 | 140
4 | Cc1nc(NC2CNC2)n2ncn(Cc3nc([C@@H]4CO[C@@H](c5ccc(Cl)cc5)C4)no3)c(=O)c12 [Example 79] |  | 92 |  | 
5 | O=c1c2cccc(=O)n2ccn1Cc1nc([C@@H]2CO[C@@H](c3ccc(Cl)cc3)C2)no1 (racemic) [Example 98, 2-[[3-[rac-(3R,5R)-5-(4-chlorophenyl)tetrahydro-furan-3-yl]-1,2,4-oxadiazol-5-yl]methyl] pyrido[1,2-a]pyrazine-1,6-dione] |  |  | 6.4 | 4
6 | Cn1cnc2ccn(Cc3nc([C@@H]4CO[C@@H](c5ccc(Cl)cc5)C4)no3)c(=O)c21 [Example 39, 5-((3-((3R,5R)-5-(4-chlorophenyl)tetrahydro-furan-3-yl)-1,2,4-oxadiazol-5-yl)methyl)-3-methyl-3,5-dihydro-4H-imidazo[4,5-c]pyridin-4-one] | 3.06 | 0.42 |  | 
7 | Cn1cnc2nc(N)n(Cc3nc([C@@H]4CO[C@@H](c5ccc(S(F)(F)(F)(F)F)cc5)C4)no3)c(=O)c21 [Example 74, 2-amino-7-methyl-1-((3-((3R,5R)-5-(4-(pentafluoro-16-sulfanyl)phenyl)tetrahydrofuran-3-yl)-1,2,4-oxadiazol-5-yl)methyl)-1,7-dihydro-6H-purin-6-one] | 170 | 120 |  | 
8 | Cn1c(N)nc2ncn(Cc3nc([C@@H]4CO[C@@H](c5ccc(F)cc5)C4)no3)c(=O)c21 [Example 22, 8-amino-1-((3-((3R,5R)-5-(4-fluorophenyl)tetrahydro-furan-3-yl)-1,2,4-oxadiazol-5-yl)methyl)-7-methyl-1,7-dihydro-6H-purin-6-one] | 126 | 19 |  | 
9 | Cc1c(N)nn2ncn(Cc3nc([C@@H]4CO[C@@H](c5ccc(F)cc5)C4)no3)c(=O)c12 [Example 145, 6-amino-3-((3-((3R,5R)-5-(4-fluorophenyl)tetrahydro-furan-3-yl)-1,2,4-oxadiazol-5-yl)methyl)-5-methylpyrazolo[5,1-f][1,2,4]triazin-4(3H)-one] | 9.28 | 46 |  | 
10 | COc1nccc2c(=O)n(Cc3nc([C@@H]4CO[C@@H](c5ccc(Cl)cc5)C4)no3)cnc12 [Example 52, 3-((3-((3R,5R)-5-(4-chlorophenyl)tetrahydro-furan-3-yl)-1,2,4-oxadiazol-5-yl)methyl)-8-methoxypyrido[3,4-d]pyrimidin-4(3H)-one] | 95.1 | 140 |  | 
11 | Cc1cnn2ncn(Cc3nc([C@@H]4CO[C@@H](c5ccc6cn[nH]c6c5)C4)no3)c(=O)c12 [Example 139, 3-((3-((3R,5R)-5-(1H-indazol-6-yl)tetrahydrofuran-3-yl)-1,2,4-oxadiazol-5-yl)methyl)-5-methylpyrazolo[5,1-f] [1,2,4]triazin-4(3H)-one] | 19.5 | 7.5 |  | 
12 | O=c1ccc2c(=O)n(Cc3nc([C@@H]4CO[C@@H](c5ccc(Cl)cc5)C4)no3)cnc2[nH]1 [Example 124, 3-((3-((3R,5R)-5-(4-chlorophenyl)tetrahydro-furan-3-yl)-1,2,4-oxadiazol-5-yl)methyl) pyrido[2,3-d]pyrimidine-4,7(3H,8H)-dione] | 12.7 | 16 |  | 
13 | COc1ccc([C@H]2C[C@H](c3noc(Cn4cnc5ncn(C)c5c4=O)n3)CO2)cc1 [Example 65, 1-((3-((3R,5R)-5-(4-methoxyphenyl)tetrahydrofuran-3-yl)-1,2,4-oxadiazol-5-yl)methyl)-7-methyl-1,7-dihydro-6H-purin-6-one] |  |  | 137 | 67
14 | Nc1nc(=O)c2cccnc2n1Cc1nc([C@@H]2CO[C@@H](c3ccc(F)cc3)C2)no1 [Example 130, 2-amino-1-((3-((3R,5R)-5-(4-fluorophenyl)tetra-hydrofuran-3-yl)-1,2,4-oxadiazol-5-yl)methyl) pyrido[2,3-d]pyrimidin-4(1H)-one] | 83.3 | 15 |  | 
15 | Cn1cnc2ncn(Cc3nc([C@@H]4CO[C@@H](c5ccc(C#N)cc5)C4)no3)c(=O)c21 [Example 37, 4-((2R,4R)-4-(5-((7-methyl-6-oxo-6,7-dihydro-1H-purin-1-yl)methyl)-1,2,4-oxadiazol-3-yl)tetrahydrofuran-2-yl)benzonitrile] | 108 | 52 |  | 
16 | O=c1ccn2c(=O)n(Cc3nc([C@@H]4CO[C@@H](c5ccc(Cl)cc5)C4)no3)ccc2n1 (racemic) [Example 99, 7-[[3-[rac-(3R,5R)-5-(4-chlorophenyl)tetrahydro-furan-3-yl]-1,2,4-oxadiazol-5-yl]methyl]pyrimido[1,6-a]pyrimidine-2,6-dione] |  |  | 15.4 | 7.2
17 | O=c1c2cccnc2cnn1Cc1nc([C@@H]2CO[C@@H](c3ccc(Cl)cc3)C2)no1 [Example 24, 6-((3-((3R,5R)-5-(4-chlorophenyl)tetrahydro-furan-3-yl)-1,2,4-oxadiazol-5-yl)methyl)pyrido[2,3-d]pyridazin-5(6H)-one] | 7.2 | 4.9 |  | 
18 | Cn1cnc2ncn(Cc3nc([C@@H]4CO[C@@]5(Cc6ccccc65)C4)no3)c(=O)c21 [Example 43, 1-((3-((4′R,7R)-4′,5′-dihydro-3′H-spiro[bicyclo[4.2.0]octane-7,2′-furan]-1(6),2,4-trien-4′-yl)-1,2,4-oxadiazol-5-yl)methyl)-7-methyl-1,7-dihydro-6H-purin-6-one] | 278 | 140 |  | 
19 | Cc1nc2ncn(C)c2c(=O)n1Cc1nc([C@@H]2CO[C@@H](c3ccc(Cl)cc3)C2)no1 [Example 8, 1-((3-((3R,5R)-5-(4-chlorophenyl)tetrahydrofuran-3-yl)-1,2,4-oxadiazol-5-yl)methyl)-2,7-dimethyl-1H-purin-6(7H)-one] |  | 4.1 | 9.38 | 
20 | Cn1nncc1C(=O)NCc1nc([C@@H]2CO[C@@H](c3ccc(Cl)cc3)C2)no1 [Example 121, N-((3-((3R,5R)-5-(4-chlorophenyl)tetrahydro-furan-3-yl)-1,2,4-oxadiazol-5-yl)methyl)-1-methyl-1H-1,2,3-triazole-5-carboxamide] | 111 | 49 |  | 
21 | Cc1nc(NC2CCN(C)CC2)n2ncn(Cc3nc([C@@H]4CO[C@@H](c5ccc(Cl)cc5)C4)no3)c(=O)c12 [Example 78, 3-((3-((3R,5R)-5-(4-chlorophenyl)tetrahydro-furan-3-yl)-1,2,4-oxadiazol-5-yl)methyl)-5-methyl-7-((1-methylpiperidin-4-yl)amino)imidazo[5,1-f] [1,2,4]triazin-4(3H)-one] |  | 150 |  | 
22 | Cn1cnc2ncn(Cc3nc([C@@H]4CO[C@@H](c5ccc(OC(F)F)cc5)C4)no3)c(=O)c21 [Example 19, 1-((3-((3R,5R)-5-(4-(difluoromethoxy)phenyl)tetrahydrofuran-3-yl)-1,2,4-oxadiazol-5-yl)methyl)-7-methyl-1,7-dihydro-6H-purin-6-one] | 150 | 110 |  | 
23 | Cn1cnc2ncn(Cc3nc([C@@H]4CO[C@@H](c5ccc(Cl)cn5)C4)no3)c(=O)c21 [Example 41, 1-((3-((3R,5R)-5-(5-chloropyridin-2-yl)tetrahydrofuran-3-yl)-1,2,4-oxadiazol-5-yl)methyl)-7-methyl-1,7-dihydro-6H-purin-6-one] | 190 | 170 |  | 
24 | Cc1ccc(=O)n2ccn(Cc3nc([C@@H]4CO[C@@H](c5ccc(Cl)cc5)C4)no3)c(=O)c12 [Example 49, 2-((3-((3R,5R)-5-(4-chlorophenyl)tetrahydro-furan-3-yl)-1,2,4-oxadiazol-5-yl)methyl)-9-methyl-2H-pyrido[1,2-a]pyrazine-1,6-dione] |  | 4.3 |  | 
25 | Nc1nc2ncn(Cc3nc([C@@H]4CO[C@@H](c5ccc(Cl)cc5)C4)no3)c(=O)c2s1 [Example 129, 2-amino-6-((3-((3R,5R)-5-(4-chlorophenyl)tetrahydrofuran-3-yl)-1,2,4-oxadiazol-5-yl)methyl)thiazolo[4,5-d] pyrimidin-7(6H)-one] | 15.1 | 5.6 |  | 
